These results are taken from patent EP0054974A1, “Imidazolylpropanol compounds and their acid addition salts, and production and use thereof” (SUMITOMO CHEMICAL COMPANY, LIMITED, priority 1980, dated 1982).

Usually MIC stands for the smallest concentration in the dilution series that meets the test's criterion for growth inhibition. Low readings indicate a more susceptible organism, high ones a less susceptible organism.

In assay [1] the test system is Candida albicans MTU12001. Description: Antifungal activity in vitro, minimum inhibitory concentration on Sabouraud's agar medium. The assay is classed as cell-based. The text has this:
(§1) The antifungal activity of some representatives of the imidazolylpropanol compounds (I) in in vitro test is as shown below.

The next assay has as its system Candida albicans Ohta. Described as above. The assay is classed as cell-based.
From the text: as §1

The test system of another assay is Trichophyton rubrum. The assay is described as above. The assay is classed as cell-based.
From the text: as §1

The next assay deals with Candida albicans KB-8. Description: Antifungal activity in vivo (decrease of cells in the kidney of Candida-infected mice). The following applies: for Medicated group, number of cells in kidney: male DDY mice infected i.v. with Candida albicans KB-8, kidneys 24 hours after infection; for log reduction at 20 mg/kg: number of cells in kidney, 24 hours after infection. How it is done:
The in vivo test of the antifungal activity with the said representative ones of the imidazolylpropanol compounds (I) was carried out in the following manner:
Candida albicans KB-8 cultured on the Sabroud's. agar plate admixed with blood in a concentration of 5 % by weight at 30°C for 4 days was suspended in physiologically saline solution to make a number of cells of 10^7/ml. The suspension was intravenously injected through the tail vein into 5 week old male DDY mice at a dose of 0.2 ml per mouse. […]
After 24 hours from the infection, the animals were killed and the kidneys were taken out. Each kidney was admixed with sea sand and smashed. After diluting with physiologically saline solution to give 5 times in volume, the dilution was centrifuged at 900 rpm for 5 minutes. A certain amount of the supernatant was scattered on a Sabroud's agar plate and cultured at 37°C for 48 hours. Then, the number of colonies was counted, the number of cells per one gram of the kidney was calculated, and the difference between the calculated numbers in the medicated group and in the non-medicated group was expressed by a logarithmic value.

Where [2] appears, read: Candida albicans, KB8, po, dose 20 mg/kg per os, read-out: Medicated/Non-medicated (logarithmic value).

Values after ≈ are worked out from the molar mass of the structure shown.

With `CCCCCCSCC(O)(Cn1ccnc1)c1ccc(Cl)cc1Cl` (stereo not drawn) [CH3-(CH2)5-S-], the MIC in assay [1] is 0.3 µg/mL (≈ 0.774 µM); against Candida albicans Ohta, 2.5 µg/mL (≈ 6.45 µM); in the assay with Trichophyton rubrum it was 0.6 µg/mL (≈ 1.55 µM).
Take `OC(COCCc1ccccc1)(Cn1ccnc1)c1ccc(Cl)cc1Cl` (stereo not drawn): the MIC is 0.6 µg/mL (≈ 1.53 µM) in assay [1], 40 µg/mL (≈ 102 µM) against Candida albicans Ohta and 2.5 µg/mL (≈ 6.39 µM) against Trichophyton rubrum.
For `OC(CNCc1ccccc1)(Cn1ccnc1)c1ccc(Cl)cc1Cl` (stereo not drawn) [the 5th table, row 0], the minimal inhibitory concentration (MIC) (in assay [1]; against Candida albicans Ohta) was 40 to 100 µg/mL (≈ 106 to 266 µM) in each case.
`OC(CSc1ccccc1)(Cn1ccnc1)c1ccc(Cl)cc1Cl` (stereo not drawn): the MIC in assay [1] stood at 0.15 µg/mL (≈ 0.395 µM); in the assay on Candida albicans Ohta, 5 µg/mL (≈ 13.2 µM); with Trichophyton rubrum it was 10 µg/mL (≈ 26.4 µM).
As for `OC(COCCSc1ccccc1)(Cn1ccnc1)c1ccc(Cl)cc1Cl` (stereo not drawn), the figures for the MIC (in assay [1]; in the assay on Candida albicans Ohta; in the assay with Trichophyton rubrum) were 1.25 µg/mL (≈ 2.95 µM), 20 µg/mL (≈ 47.2 µM) and 5 µg/mL (≈ 11.8 µM), respectively.
The corresponding values for `CCCCOCC(O)(Cn1ccnc1)c1ccc(Cl)cc1Cl` (stereo not drawn) [CH3-(CH2)3-O-, 3-n-butyloxy-2-(2,4-dichlorophenyl)-l-(imidazol-l-yl)-2-propanol] are 5 µg/mL (≈ 14.6 µM), 40 µg/mL (≈ 117 µM) and 0.6 µg/mL (≈ 1.75 µM).
The corresponding values for `OC(CSCc1ccccc1)(Cn1ccnc1)c1ccc(Cl)cc1Cl` (stereo not drawn) are 0.075 µg/mL (≈ 0.191 µM), 2.5 µg/mL (≈ 6.36 µM) and 5 µg/mL (≈ 12.7 µM).
For the molecule `CCCCCCCCSCC(O)(Cn1ccnc1)c1ccc(Cl)cc1Cl` (stereo not drawn) [CH3-(CH2)7-S-], the MIC was 0.15 µg/mL (≈ 0.361 µM) in assay [1], 1.25 µg/mL (≈ 3.01 µM) against Candida albicans Ohta and 0.3 µg/mL (≈ 0.722 µM) in the assay with Trichophyton rubrum.
The corresponding values for `OC(CN1CCN(Cc2ccccc2)CC1)(Cn1ccnc1)c1ccc(Cl)cc1Cl` (stereo not drawn) [the 5th table, row 7] are 40 to 100 µg/mL (≈ 89.8 to 225 µM), 40 to 100 µg/mL (≈ 89.8 to 225 µM) and 20 µg/mL (≈ 44.9 µM).
For the molecule `CCCCSCC(O)(Cn1ccnc1)c1ccc(Cl)cc1Cl` (stereo not drawn) [CH3-(CH2)3-S-], the MIC in assay [1] is 0.075 µg/mL (≈ 0.209 µM); against Candida albicans Ohta it was 1.25 µg/mL (≈ 3.48 µM); in the assay on Trichophyton rubrum, 0.6 µg/mL (≈ 1.67 µM).
For `Clc1ccc(COC(Cn2ccnc2)c2ccc(Cl)cc2Cl)c(Cl)c1` (stereo not drawn) [Miconazole, 1-[2,4-Dichloro-β-(2,4-dichlorobenzyloxy)phenylethyl]imidazole, reference compound], in the assay on Candida albicans KB-8 (Candida albicans, KB8, po, 24 h, read-out: Medicated/Non-medicated (logarithmic value)), the log reduction at 100 mg/kg was found to be 0.8. The “Medicated group, number of cells in kidney” value (“Medicated group, number” below) in the assay with Candida albicans KB-8 (dose 100 mg/kg per os) is 2.96x10^4 cell/g.
Turning to `OC(COc1ccccc1Cl)(Cn1ccnc1)c1ccc(Cl)cc1Cl` (stereo not drawn), the MIC in assay [1] came out at 1.25 µg/mL (≈ 3.14 µM); with Candida albicans Ohta, 20 µg/mL (≈ 50.3 µM); in the assay on Trichophyton rubrum, 5 µg/mL (≈ 12.6 µM).
With `OC(CNCc1ccccc1)(Cn1ccnc1)c1ccc(Cl)cc1Cl` (stereo not drawn) [the 6th table, row 5], the log reduction at 20 mg/kg in the assay with Candida albicans KB-8 (setting [2]) came out at 1.6. In the assay with Candida albicans KB-8 (dose 20 mg/kg per os), the “Medicated group, number” value is listed as 4.17x10^3 cell/g.
Consider `OC(CN1CCN(c2ccccc2)CC1)(Cn1ccnc1)c1ccc(Cl)cc1Cl` (stereo not drawn) [the 5th table, row 6], for which the values for the MIC (in assay [1]; in the assay with Candida albicans Ohta; in the assay with Trichophyton rubrum) were 5 µg/mL (≈ 11.6 µM), 20 µg/mL (≈ 46.4 µM) and 0.6 µg/mL (≈ 1.39 µM), respectively.
For the molecule `OC(CNCC1CCCO1)(Cn1ccnc1)c1ccc(Cl)cc1Cl` (stereo not drawn) [the 5th table, row 4], the MIC (in assay [1]; with Candida albicans Ohta; against Trichophyton rubrum) was 40 to 100 µg/mL (≈ 108 to 270 µM) each time.
In the case of `CCCCCSCC(O)(Cn1ccnc1)c1ccc(Cl)cc1Cl` (stereo not drawn) [CH3-(CH2)4-S-], the figures for the MIC (in assay [1]; against Candida albicans Ohta; against Trichophyton rubrum) were 1.25 µg/mL (≈ 3.35 µM), 5 µg/mL (≈ 13.4 µM) and 1.25 µg/mL (≈ 3.35 µM), respectively.
As for `OC(CNCCN1CCOCC1)(Cn1ccnc1)c1ccc(Cl)cc1Cl` (stereo not drawn) [the 6th table, row 7], the log reduction at 20 mg/kg with Candida albicans KB-8 (setting [2]) amounted to 1.23. For the same molecule, the “Medicated group, number” value with Candida albicans KB-8 (dose 20 mg/kg per os) was 9.78x10^3 cell/g.
The corresponding values for `OC(CNCc1ccco1)(Cn1ccnc1)c1ccc(Cl)cc1Cl` (stereo not drawn) [the 7th table, row 3] are 1.05 and 5.13x10^3 cell/g.
Consider `CN1CCN(CC(O)(Cn2ccnc2)c2ccc(Cl)cc2Cl)CC1` (stereo not drawn) [the 5th table, row 5], for which the MIC in assay [1] was 2.5 µg/mL (≈ 6.77 µM); in the assay on Candida albicans Ohta it was 40 µg/mL (≈ 108 µM); against Trichophyton rubrum, 40 to 100 µg/mL (≈ 108 to 271 µM).
The corresponding values for `COc1ccc(SCC(O)(Cn2ccnc2)c2ccc(Cl)cc2Cl)cc1` (stereo not drawn) are 0.3 µg/mL (≈ 0.733 µM), 5 µg/mL (≈ 12.2 µM) and 20 µg/mL (≈ 48.9 µM).
The corresponding values for `CC(C)CCOCC(O)(Cn1ccnc1)c1ccc(Cl)cc1Cl` (stereo not drawn) are 0.6 µg/mL (≈ 1.68 µM), 40 µg/mL (≈ 112 µM) and 5 µg/mL (≈ 14 µM).
With `OC(CNCCN1CCOCC1)(Cn1ccnc1)c1ccc(Cl)cc1Cl` (stereo not drawn) [the 5th table, row 2], the MIC (in assay [1]; in the assay with Candida albicans Ohta; with Trichophyton rubrum) was 40 to 100 µg/mL (≈ 100 to 250 µM) in each case.
In the case of `C=CCOCC(O)(Cn1ccnc1)c1ccc(Cl)cc1Cl` (stereo not drawn) [CH2=CH-CH2-O-], the MIC is 1.25 µg/mL (≈ 3.82 µM) in assay [1], 40 to 100 µg/mL (≈ 122 to 306 µM) in the assay with Candida albicans Ohta and 10 µg/mL (≈ 30.6 µM) in the assay on Trichophyton rubrum.
Turning to `OC(CN1CCN(c2ccccc2)CC1)(Cn1ccnc1)c1ccc(Cl)cc1Cl` (stereo not drawn) [the 7th table, row 6], the log reduction at 20 mg/kg in the assay with Candida albicans KB-8 (setting [2]) stood at 1.58. Also, in the assay on Candida albicans KB-8 (dose 20 mg/kg per os), the “Medicated group, number” value is reported as 1.52x10^3 cell/g.
The corresponding values for `OC(CNC1CCCCC1)(Cn1ccnc1)c1ccc(Cl)cc1Cl` (stereo not drawn) are 1.27 and 8.91x10^3 cell/g.
As to `CN1CCN(CC(O)(Cn2ccnc2)c2ccc(Cl)cc2Cl)CC1` (stereo not drawn) [the 7th table, row 5], the log reduction at 20 mg/kg in the assay with Candida albicans KB-8 (setting [2]) is 1.59. Moreover, the “Medicated group, number” value in the assay with Candida albicans KB-8 (dose 20 mg/kg per os) was 8.32x10^3 cell/g.
Take `Cc1cccc(SCC(O)(Cn2ccnc2)c2ccc(Cl)cc2Cl)c1` (stereo not drawn): the MIC in assay [1] worked out at 0.15 µg/mL (≈ 0.381 µM); against Candida albicans Ohta, 0.6 µg/mL (≈ 1.53 µM); against Trichophyton rubrum, 5 µg/mL (≈ 12.7 µM).
Consider `OC(CNCC1CCCO1)(Cn1ccnc1)c1ccc(Cl)cc1Cl` (stereo not drawn) [the 7th table, row 4], for which, in the assay with Candida albicans KB-8 (setting [2]), the log reduction at 20 mg/kg came out at 1.01. Also, the “Medicated group, number” value with Candida albicans KB-8 (dose 20 mg/kg per os) is 5.62x10^3 cell/g.
In the case of `OC(COCc1ccccc1)(Cn1ccnc1)c1ccc(Cl)cc1Cl` (stereo not drawn), the figures for the MIC (in assay [1]; in the assay with Candida albicans Ohta; against Trichophyton rubrum) were 10 µg/mL (≈ 26.5 µM), 40 µg/mL (≈ 106 µM) and 0.6 µg/mL (≈ 1.59 µM), respectively.
The like results for `OC(CSc1ccc(F)cc1)(Cn1ccnc1)c1ccc(Cl)cc1Cl` (stereo not drawn) were, in that order, 0.3 µg/mL (≈ 0.755 µM), 2.5 µg/mL (≈ 6.29 µM) and 40 µg/mL (≈ 101 µM).
On to `OC(CNCc1ccco1)(Cn1ccnc1)c1ccc(Cl)cc1Cl` (stereo not drawn) [the 5th table, row 3], for which the MIC (in assay [1]; against Candida albicans Ohta; in the assay with Trichophyton rubrum) was 40 to 100 µg/mL (≈ 109 to 273 µM) in each case.
On to `OCCNCC(O)(Cn1ccnc1)c1ccc(Cl)cc1Cl` (stereo not drawn) [the 6th table, row 6], for which the log reduction at 20 mg/kg with Candida albicans KB-8 (setting [2]) worked out at 1.58. For the same molecule, the “Medicated group, number” value in the assay on Candida albicans KB-8 (dose 20 mg/kg per os) is listed as 1.91x10^3 cell/g.
For the molecule `OC(CN1CCN(Cc2ccccc2)CC1)(Cn1ccnc1)c1ccc(Cl)cc1Cl` (stereo not drawn) [the 7th table, row 7], in the assay on Candida albicans KB-8 (setting [2]), the log reduction at 20 mg/kg was found to be 1.15. The “Medicated group, number” value with Candida albicans KB-8 (dose 20 mg/kg per os) is listed as 4.09x10^3 cell/g.
`CC(C)SCC(O)(Cn1ccnc1)c1ccc(Cl)cc1Cl` (stereo not drawn): the values for the MIC (in assay [1]; against Candida albicans Ohta; against Trichophyton rubrum) were 0.6 µg/mL (≈ 1.74 µM), 40 µg/mL (≈ 116 µM) and 5 µg/mL (≈ 14.5 µM), respectively.
`OC(CSc1ccncc1)(Cn1ccnc1)c1ccc(Cl)cc1Cl` (stereo not drawn): the MIC in assay [1] is 10 µg/mL (≈ 26.3 µM); with Candida albicans Ohta, 40 to 100 µg/mL (≈ 105 to 263 µM); against Trichophyton rubrum it was 20 µg/mL (≈ 52.6 µM).
The corresponding values for `OCCNCC(O)(Cn1ccnc1)c1ccc(Cl)cc1Cl` (stereo not drawn) [the 5th table, row 1] are 40 to 100 µg/mL (≈ 121 to 303 µM), 40 to 100 µg/mL (≈ 121 to 303 µM) and 40 to 100 µg/mL (≈ 121 to 303 µM).
`CCCCCCNCC(O)(Cn1ccnc1)c1ccc(Cl)cc1Cl` (stereo not drawn) [CH3-(CH2)5-NH-]: the log reduction at 20 mg/kg with Candida albicans KB-8 (setting [2]) came to 1.52. Also, the “Medicated group, number” value in the assay with Candida albicans KB-8 (dose 20 mg/kg per os) is given as 1.75x10^3 cell/g.
